We go through two compounds from patent publication US20040101840A1, “Identification, cloning and characterization of a novel pc-1 gene differentially expressed in prostate cells and tissues” (priority 2003, published 2004).

The structures appear in SMILES notation.

What all share (type): cell-based, human
Assay [1] deals with PC-1 gene expression in LNCaP and C4-2 cells. Briefly: Antiandrogen blockade of androgen-induced PC-1 gene expression in prostate cancer cell lines. The procedure: Parental LNCaP and its derivative cell lines, C4, C4-2, and C4-2B, were described previously. ARCaP cells, a highly invasive prostate cancer cell line, were generated by our lab from the ascites fluid of a person with Al and aggressive human prostate cancer. […]. To test the effect of androgen in affecting PC-1 gene expression in prostate cancer cell lines, cells were exposed to a synthetic androgen methyltrioenolone (R1881) at a concentration of 0.1, 1, and 10 nM. […] The culture was allowed to continue for two days and total cellular RNA was isolated and subjected to RT-PCR and Northern blot analysis for the expression of PC-1 gene. […]
(§1) First strain cDNA was synthesized from 1 μg of total RNA with a hexamer random primer obtained from Perkin-Elmer using a MMLV reverse transcriptase obtained from Life Technologies, Inc. (Grand Island, N.Y.) according to the manufacturer's instructions. cDNAs obtained were subjected to Taq DNA polymerase PCR reaction under the condition of 94° for 1 minute, 60° for 1 minute, 72° for 45 seconds, or 94° for 1 minute, 53° for 1 minute, and 72° for 1 minute for 30 cycles, and an extension of 72° for 10 minutes. […] The PCR. products were evaluated on a 1% agarose gel and confirmed by Southern blot analysis. […]

Assay [2] has as its system D52/N8 gene expression in LNCaP and C4-2 cells. The assay can be described thus: Androgen regulation of D52/N8 gene expression in prostate cancer cell lines. The procedure:
Parental LNCaP and its derivative cell lines, C4, C4-2, and C4-2B, were described previously. ARCaP cells, a highly invasive prostate cancer cell line, were generated by our lab from the ascites fluid of a person with Al and aggressive human prostate cancer. […]. To test the effect of androgen in affecting PC-1 gene expression in prostate cancer cell lines, cells were exposed to a synthetic androgen methyltrioenolone (R1881) at a concentration of 0.1, 1, and 10 nM. To assess the specificity of androgen induction of PC-1 gene expression, some of the cells exposed to 10 nM of R1881 were also treated with an antiandrogen Casodex, 10 μM. […]
as §1

Assay [3] concerns PC-1 gene expression in C4-2 cells. Briefly: Androgen regulation of PC-1 gene expression in C4-2 cells (RT-PCR and Northern blot). The note with it: two days exposure. The procedure:
(§2) Parental LNCaP and its derivative cell lines, C4, C4-2, and C4-2B, were described previously. ARCaP cells, a highly invasive prostate cancer cell line, were generated by our lab from the ascites fluid of a person with Al and aggressive human prostate cancer. All other cell lines were obtained from ATCC and were cultured in TB containing 5% FBS, as described previously. To test the effect of androgen in affecting PC-1 gene expression in prostate cancer cell lines, cells were exposed to a synthetic androgen methyltrioenolone (R1881) at a concentration of 0.1, 1, and 10 nM. To assess the specificity of androgen induction of PC-1 gene expression, some of the cells exposed to 10 nM of R1881 were also treated with an antiandrogen Casodex, 10 μM. […]
as §1

Assay [4] concerns PC-1 gene expression in LNCaP cells. The assay can be described thus: Androgen regulation of PC-1 gene expression in LNCaP cells (RT-PCR and Northern blot). The conditions noted are these: two days exposure. The protocol:
as §2, §1

`CC(O)(CS(=O)(=O)c1ccc(F)cc1)C(=O)Nc1ccc(C#N)c(C(F)(F)F)c1` (stereo not drawn) [Casodex]: the “effect on R1881-increased expression of the PC-1 gene” value in assay [1] (coadministration with R1881, Casodex (10 nM) as printed in FIG. 5 legend) was “blocked”. The “effect on androgen-induced PC-1 gene expression” value in assay [1] (coadministration with androgen, LNCaP and C4-2) is “effectively terminated”. In assay [2] (coadministration of R1881 and Casodex), the “inhibition of D52/N8 expression” value is “nor was its expression inhibited”.
As to `C[C@]1(O)CC[C@H]2[C@@H]3CCC4=CC(=O)CCC4=C3C=C[C@@]21C` [R1881, methyltrioenolone], the “concentration at which steady-state levels of PC-1 gene expression are increased” value in assay [3] is given as 0.1 nM. Besides, in assay [4], the “concentration required to increase PC-1 gene expression” value was 1 nM. Moreover, in assay [2] (R1881 alone), the “regulation of D52/N8 expression by androgen” value is given as “not regulated”.
